Reference: article PMC7932521, “2-aminobenzimidazoles for leishmaniasis: From initial hit discovery to in vivo profiling” (PLoS Neglected Tropical Diseases, 2021)
Where two headings read alike, the source gives them in different places.

Columns and labels:
[1] = system: Leishmania infantum MHOM/MA(BE)/67/ITMAP263 amastigotes; assay: L. infantum intracellular amastigote assay in PMM; assay type: cell-based; conditions: for SI: selectivity index (CC50 / IC50): CC50 / L. infantum IC50
In short: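 Mouse peritoneal macrophages infected with hamster spleen-derived amastigotes (2 h, 37°C), then exposed to 4-fold dilutions from 64 μM (DMSO <1%) for 5 days at 37°C, 5% CO2. Burden scored microscopically after Giemsa staining as percent reduction vs untreated wells; IC50 as geometric mean of ≥2 experiments.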

[2] = system: PMM (Primary Mouse Macrophages); assay: Cytotoxicity on primary peritoneal mouse macrophages; assay type: cell-based; conditions: read-out: PMM IC50
In short: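 Host cells were peritoneal macrophages from Swiss mice, harvested after 2 days of starch stimulation and kept in RPMI-1640 with 5% FCS at 37 °C, 5% CO2. Compounds were tested in 4-fold dilutions from 64 μM, with final DMSO below 1%.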

MRC-5 cytotoxicity = assay type: cell-based; conditions: human, MRC-5 cells; S1 Data
HEPG2 cytotoxicity = assay type: cell-based; conditions: human, HepG2 cells; S1 Data
Source text: Supplement pntd.0009196.s001.xlsx, sheet "Complete Dataset" | column: HEPG2 CC50 (uM)

[3] = Experimental distribution coefficient (eLogD); assay type: physicochemical; conditions: for chromatographic logD: reverse stationary phase HPLC column (Ascentis RP-Amide)
In short: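 Lipophilicity derived from retention time on an Ascentis RP-Amide reverse-phase column by LC-MS/MS, compounds at 1.0 μg/mL with internal standard; mobile phases 5% methanol in 10mM ammonium acetate pH 7.4 and 100% methanol. LogD calculated from a linear calibration of eight standards' retention times against known LogD.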

[4] = Mouse liver microsomal stability; assay type: in vitro ADME; conditions: for microsomal CLint at 0.5 μM: CD1, mouse, liver microsomes
In short: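 Test compound at 0.5 μM incubated with 0.25 mg/mL human (200-donor pool) or CD1 mouse liver microsomes, pH 7.4, 37°C, started with […]; sampled 0–30 min. LC-MS/MS quantitation against internal standard; t1/2 and Clint (μL/min/mg) from non-linear regression of % remaining versus time.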

[5] = Parallel artificial membrane permeability assay (PAMPA); assay type: in vitro ADME; conditions: S1 Data; for Papp at 5 h, 10 μM: PAMPA, read-out: PAMPA Pe
In short: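 Compounds at 10μM final in PBS pH 6.5 (donor) against PBS pH 7.4 (acceptor) across lipid-coated membranes, incubated 5 h at 37°C. Donor, acceptor and T0 levels measured by LC-MS/MS to derive effective permeability (Pe); n = 3.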

[6] = system: L. infantum (MHOM/BR/2005/NLC) strain expressing luciferase; assay type: in vivo, Leishmania infantum; conditions: 40 mg/kg/day oral, 5 days, and washout
Description: Groups of female BALB/c mice (n = 5) were infected with 10^8 stationary phase promastigotes of L. infantum chagasi-LUC in a final volume of 100 μL by the intraperitoneal route. At day 14 post-infection, groups were orally treated for 5 days with either drug vehicle only (10% ethanol, 40% PEG400 and 0.4% Tween80 in saline buffer—pH adjusted to 9), miltefosine (40 mg/kg QD) or with compounds 29 and 39 (25 mg/kg QD). Light emission in the ventral abdominal cavity of infected animals was recorded by bioimaging (IVIS Spectrum, Caliper Life Sciences) on 14, 19- and 24-days post-infection. Before imaging, mice received 75 mg/kg VivoGlo™ Luciferin (Promega Corporation) (i.p.) and were anesthetized in a 2% isoflurane atmosphere (Cristália). Animals were then transferred to the imaging chamber and kept in a 2% isoflurane atmosphere. Emitted photons were collected using the high resolution (medium binning) mode. Total photon emission from a defined region of interest (ROI) corresponding to the whole abdominal area was registered. The same ROI was applied to all animals in any given group. Images were acquired 15 min after luciferin injection. Total photon emission from each mouse was quantified with Living Image software version 4.3.1 (Caliper Life Sciences), and results were expressed as the number of photons/s/ROI subtracted from the corresponding ROI in uninfected animals. The detected signal was presented as a pseudocolor image representing light intensity (red = most intense and blue = least intense) and superimposed on the gray scale reference image.

[7] = system: L. braziliensis MHOM/BR/94/H3227; assay: VL/CL panel, intracellular amastigotes; assay type: cell-based; conditions: Leishmania braziliensis; average; read-out: IC-50 L. braziliensis MHOM/BR/94/H3227
Description: (§1) For the antileishmania in vitro assays, 3×10^4 PMM/well were seeded in 96-well plates. After 24h, 5×10^5 amastigotes/well were added and incubated for 2h at 37°C. Next, the compounds in 4-fold serial dilutions were added and the plates were further incubated for 5 days (37°C, 5% CO2). Parasite burdens were assessed using an inverted microscope after Giemsa staining. The results were expressed as percent reduction in parasite burdens compared to negative control wells (100% growth) and IC50 values were determined. Values represent the geometric mean of at least two independent experiments. Miltefosine was used as the positive control in all plates.

[8] = system: L. donovani MHOM/ NP/2003/ BPK282/0-cl4; assay: VL/CL panel, intracellular amastigotes; assay type: cell-based; conditions: Leishmania donovani; average; read-out: IC-50 L. donovani MHOM/ NP/2003/ BPK282/0-cl4
Description: as §1

[9] = system: L. donovani MHOM/ET/2007/LLM-1600; assay: VL/CL panel, intracellular amastigotes; assay type: cell-based; conditions: Leishmania donovani; average; read-out: IC-50 L. donovani MHOM/ET/2007/LLM-1600
Description: as §1

[10] = system: L. donovani MHOM/NP/03/BPK275/0-cl18; assay: VL/CL panel, intracellular amastigotes; assay type: cell-based; conditions: Leishmania donovani; average; read-out: IC-50 L. donovani MHOM/NP/03/BPK275/0-cl18
Description: as §1

[11] = system: L. guyanensis MHOM/PE/02/PER 054/0; assay: VL/CL panel, intracellular amastigotes; assay type: cell-based; conditions: Leishmania guyanensis; average; read-out: IC-50 L. guyanensis MHOM/PE/02/PER 054/0
Description: as §1

[12] = system: L. infantum LEM3323-cl4 MIL; assay: VL/CL panel, intracellular amastigotes; assay type: cell-based; conditions: Leishmania infantum, read-out: IC-50 L. infantum LEM3323-cl4 MIL
Description: as §1

[13] = system: L. infantum LEM3323-cl4 PMM; assay: VL/CL panel, intracellular amastigotes; assay type: cell-based; conditions: Leishmania infantum, read-out: IC-50 L. infantum LEM3323-cl4 PMM
Description: as §1

[14] = system: L. infantum MHOM/BR/2007/WC (L3015); assay: VL/CL panel, intracellular amastigotes; assay type: cell-based; conditions: Leishmania infantum; average; read-out: IC-50 L. infantum MHOM/BR/2007/WC (L3015)
Description: as §1

[15] = system: L. infantum MHOM/ES/2016/LLM-2346; assay: VL/CL panel, intracellular amastigotes; assay type: cell-based; conditions: Leishmania infantum; average; read-out: IC-50 L. infantum MHOM/ES/2016/LLM-2346
Description: as §1

[16] = system: L. infantum MHOM/FR/96/LEM3323-cl4; assay: VL/CL panel, intracellular amastigotes; assay type: cell-based; conditions: Leishmania infantum; average; read-out: IC-50 L. infantum MHOM/FR/96/LEM3323-cl4
Description: as §1

[17] = system: L. major MHOM/IL/81/Friedlin; assay: VL/CL panel, intracellular amastigotes; assay type: cell-based; conditions: Leishmania major; average; read-out: IC-50 L. major MHOM/IL/81/Friedlin
Description: as §1

[18] = system: L. major MHOM/SA/85/JISH118; assay: VL/CL panel, intracellular amastigotes; assay type: cell-based; conditions: Leishmania major; average; read-out: IC-50 L. major MHOM/SA/85/JISH118
Description: as §1

[19] = system: L. panamensis MHOM/PA/71/LS94; assay: VL/CL panel, intracellular amastigotes; assay type: cell-based; conditions: Leishmania panamensis; average; read-out: IC-50 L. panamensis MHOM/PA/71/LS94
Description: as §1

[20] = system: L. tropica MHOM/AF/2015/HTD7; assay: VL/CL panel, intracellular amastigotes; assay type: cell-based; conditions: Leishmania tropica; average; read-out: IC-50 L. tropica MHOM/AF/2015/HTD7
Description: as §1

MRC-5 cells = assay: MRC-5 cytotoxicity; assay type: cell-based; conditions: S1 Data
[21] = Leishmania infantum, 120 h, intracellular amastigotes in PMM, 5 days, read-out: L. infantum IC50
[22] = Leishmania infantum, S1 Data, read-out: L. infantum IC50
[23] = pH 7.4, S1 Data, read-out: MLM CLint

With N#Cc1ccc2nc(NC(=O)Cc3ccc(F)cc3F)n(CC(F)(F)F)c2c1 [Compound 24, Fc1cc(F)ccc1CC(Nc2nc(ccc(C#N)c3)c3n2CC(F)(F)F)=O] the IC50 [1, 21] was 10 µM, the IC50 [1, 22] was 10.2 µM and the IC50 ([2]; Mus musculus, Macrophage) was 16 µM. The CC50 (MRC-5 cytotoxicity) was > 64 µM, the CC50 (HEPG2 cytotoxicity) was > 64 µM and the chromatographic logD ([3]; pH 7.4, S1 Data) was 3.85. It also gave a microsomal CLint at 0.5 μM [4, 23] of 20 µL/min/mg, a microsomal CLint at 0.5 μM ([4]; pH 7.4, mouse liver microsome intrinsic clearance, read-out: MLM Clint) of 19.6 µL/min/mg and a Papp at 5 h, 10 μM [5] of 0.76 ×10⁻⁶ cm/s.
With CC(C)(C)Cn1c(NC(=O)c2ccn[nH]2)nc2ccc(C#N)cc21 [Compound 34, O=C(Nc1nc(ccc(C#N)c2)c2n1CC(C)(C)C)c3ccn[nH]3] the “SI: selectivity index (CC50 / IC50)” value [1] was 1, the IC50 [1, 21] was 38 µM and the IC50 [1, 22] was 38.3 µM. The IC50 ([2]; Mus musculus, Macrophage) was 50.8 µM, the CC50 (MRC-5 cytotoxicity) was > 64 µM and the CC50 (HEPG2 cytotoxicity) was 16 µM. For the same compound, the eLogD ([3]; experimental, pH 7.4) was 3.6, the chromatographic logD ([3]; pH 7.4, S1 Data) was 3.67 and the microsomal CLint at 0.5 μM [4, 23] was 47 µL/min/mg. The Papp at 5 h, 10 μM [5] was 11.1 ×10⁻⁶ cm/s.
With CCCCCCCCCCCCCCCCOP(=O)([O-])OCC[N+](C)(C)C [Miltefosine, reference compound] the IC50 [1, 21] was 11.2 µM, the IC50 ([1]; Leishmania infantum, panel sheet, average, read-out: IC-50 L. infantum MHOM/MA/67/ITMAP263) was 1.16 µM and the “parasite load (total ventral bioluminescence)” value [6] was “undetectable levels”. The IC50 [7] was 1 µM, the IC50 [8] was 1.81 µM and the IC50 [9] was 2.01 µM. The IC50 [10] was 2.07 µM, the IC50 [11] was 8.06 µM and the IC50 [12] was 20.3 µM. For the same compound, the IC50 [13] was 2.69 µM, the IC50 [14] was 2.16 µM and the IC50 [15] was 2.07 µM. It also gave an IC50 [16] of 2.01 µM, an IC50 [17] of 11.3 µM and an IC50 [18] of 24.1 µM. The IC50 [19] was 1.81 µM and the IC50 [20] was 2.16 µM.
With “CCCn1c(NC(=O)Cc2ccc(F)cc2)nc(c13)cc(C(=O)N(C)OC)cc3 [Compound 15]” the “SI: selectivity index (CC50 / IC50)” value [1] was 5, the IC50 ([1]; S1 Data, read-out: L. infantum IC50) was 12.7 µM and the IC50 ([1]; intracellular amastigotes in PMM, 5 days, read-out: L. infantum IC50) was 13 µM. The IC50 ([2]; S1 Data) was > 64 µM, the CC50 (MRC-5 cells) was 55.5 µM and the eLogD ([3]; S1 Data) was 3.31. For the same compound, the eLogD ([3]; experimental, pH 7.4) was 3.3, the “MLM CLint” value ([4]; S1 Data) was 128 µL/min/mg and the “PAMPA Pe” value [5] was 9.07 10-6 cm/s.
